In article PMC6788984, “High-potency ligands for DREADD imaging and activation in rodents and monkeys” (Nature Communications, 2019):
Several values for one entry are separate records, joined by “and”; a condition that tells them apart may be missing. Equal values may be shown once.

What was measured:
[1] = test system: mu, kappa, and delta opioid receptors; test: Binding and enzyme target profile screen (Eurofins); conditions: competitive binding screen, 10 uM
Method: These experiments were performed by an outside vendor (Eurofins, France). […] In each experiment, the respective reference compound was tested concurrently with the test compound to assess the assay reliability. […] Following incubation, the samples were filtered rapidly under vacuum through glass fiber filters presoaked in a buffer and rinsed several times with an ice-cold buffer using a 48-sample or 96-sample cell harvester. The filters were counted for radioactivity in a scintillation counter using a scintillation cocktail.

WT mice = test: [18F]FDG PET metabolic mapping in WT mice; type: in vivo, mouse; conditions: 0.1 mg/kg
Method: Mice (D1-hM3Dq, D1-hM4Di or WT littermates, see above) were habituated to experimenter handling and fasted 16 h before the experiment. On the day of the experiment, mice received an IP injection of vehicle (1 ml kg^−1) and were placed back into their home cages. Ten minutes later, mice were injected (IP) with 11 MBq of 2-deoxy-2-[^18F]fluoro-D-glucose (FDG, Cardinal Health) and placed back into their home cages. After 30 min, mice were anesthetized with 1.5% isoflurane, placed on a custom-made bed of a nanoScan small animal PET/CT scanner (Mediso Medical Imaging Systems) and scanned for 20 min on a static acquisition protocol, followed by a CT scan. […] Voxel-based repeated measures with Student’s t test comparing baseline to drug were performed, and the resulting parametric images were filtered for statistically significant (p < 0.05) clusters larger than 100 contiguous voxels. All statistical parametric mapping analyses were performed using Matlab R2016 (Mathworks) and SPM12 (University College London).

hM4Di [2] = target: T1, hM4Di (Homo sapiens, UniProt P08173, A203G/Y113C); test: Autoradiography: direct binding of [3H]clozapine, [3H]C21, [3H]C13 in monkey brain sections expressing hM4Di; parameters: expressed in transfected cells; host or cells: rhesus monkey (Macaca mulatta) right amygdala, lentivirus-transduced neurons; species or system rhesus monkey (Macaca mulatta); unit not given here; conditions: Fig. 1 panel H; [3H]-labelled ligand; individual values; listed as CLZ
T1 sequence (P08173 1-479 Y113C/A203G): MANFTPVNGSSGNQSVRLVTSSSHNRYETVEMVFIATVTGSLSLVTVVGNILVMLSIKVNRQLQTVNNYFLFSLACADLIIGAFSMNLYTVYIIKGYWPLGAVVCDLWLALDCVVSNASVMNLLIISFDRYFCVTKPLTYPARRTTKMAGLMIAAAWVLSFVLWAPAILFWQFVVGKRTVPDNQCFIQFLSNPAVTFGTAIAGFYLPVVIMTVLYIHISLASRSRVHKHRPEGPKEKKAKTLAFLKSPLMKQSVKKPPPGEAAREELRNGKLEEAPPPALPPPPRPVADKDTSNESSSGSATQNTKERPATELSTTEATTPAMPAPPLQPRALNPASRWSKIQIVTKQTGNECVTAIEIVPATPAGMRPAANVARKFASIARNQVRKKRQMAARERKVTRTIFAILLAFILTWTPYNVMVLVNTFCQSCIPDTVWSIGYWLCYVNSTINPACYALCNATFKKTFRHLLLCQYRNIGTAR
Description: Flash frozen tissue (both rodents and the monkey) was sectioned (20 µm) on a cryostat (Leica, Germany) and thaw mounted onto ethanol-washed glass slides. […] Slides were air dried and placed in a Hypercassette™ (Amersham Biosciences) and covered with a BAS-TR2025 Storage Phosphor Screen (FujiFilm, Japan). The slides were exposed to the screen for 5–7 days and imaged using a phosphor imager (Typhoon FLA 7000; GE Healthcare).

[3] = test system: untransfected HEK-293 cells; test: Negative controls of the functional assays: HEK-293 cells without DREADD; type: cell-based, human
Method: BRET assays were performed to detect receptor ligand-induced Gαo1 protein activation. […] Forty-eight hour after transfection cells were harvested, washed and resuspended in phosphate-buffered saline (PBS). Approximately, 200,000 cells/well were distributed in 96-well plates, and 5 µM Coelenterazine H (substrate for luciferase) was added to each well. Five minutes after addition of Coelenterazine H, ligands were added to each well. The fluorescence of the acceptor was quantified (excitation at 500 nm and emission at 540 nm for 1-s recordings) in a PheraStar FSX plate reader (BMG Labtech) to confirm the constant expression levels across experiments. In parallel, the BRET signal from the same batch of cells was determined as the ratio of the light emitted by mVenus (510–540 nm) over that emitted by RLuc (485 nm). Results were calculated for the BRET change (BRET ratio for the corresponding drug minus BRET ratio in the absence of the drug) 5 min after the addition of the ligands.
Intracellular Ca^2+ concentration was monitored using the fluorescent Ca^2+ biosensor GCaMP6f. HEK-293 cells were transfected with 7 µg/dish of the cDNA encoding for hM3Dq (Addgene #89149) or hM4Di (Addgene #89150) and 7 µg/dish of GCaMP6. Forty-eight hours after transfection, cells were harvested, washed, resuspended in Mg^2+-free Locke’s buffer pH 7.4 (154 mM NaCl, 5.6 mM KCl, 3.6 mM NaHCO3, 2.3 mM CaCl2, and 5 mM HEPES) containing 5.6 mM of glucose and approximately 200,000 cells/well were distributed in black 96-well plates. Increasing concentrations of the indicated compound were added to the cells and fluorescence intensity (excitation at 480 nm, emission at 530 nm) was measured at 18-s intervals during 250 s using a PHERAstar FSX (BMG Labtech). The net change in intracellular Ca^2+ concentration was expressed as F − F0 where F is the fluorescence at a given concentration of ligand and F0 is the average of the baseline values (fluorescence values of buffer-treated wells).

hM4Di [4] = target: T1, hM4Di; test: [35S]GTPgammaS autoradiography in rat brain sections expressing hM4Di; type: biochemical; parameters: expressed in transfected cells; host or cells: rat right motor cortex, AAV-transduced neurons; conditions: 10 nM
Method: Sections were encircled with a hydrophobic membrane using a PAP pen (Sigma-Aldrich). Preincubation buffer was pipetted onto each slide and allowed to incubate for 20 min (50 mM Tris-HCl, 1 mM EDTA, 5 mM MgCl2 and 100 mM NaCl). The preincubation buffer was removed via aspiration and each slide was loaded with GDP in the presence of DPCPX and allowed to incubate of 60 min (Preincubation buffer, 2 mM GDP, 1 μM DPCPX, Millipore water). […] The [^35S]GTPγS cocktail was removed via aspiration and slides were washed in ice-cold washing buffer (50 mM Tris-HCl, 5 mM MgCl2, pH 7.4) for 5 min (2×) followed by a 30 s dip in ice-cold deionized water. Hydrophobic membrane was removed with a cotton swab and xylene and slides were placed into a […] covered by a BAS-SR2040 phosphor screen (FujiFilm; GE Healthcare). The slides were exposed to the phosphor screen for 3-5 days and imaged using a phosphor imager (Typhoon FLA 7000; GE Healthcare).

P-gp = target: T2, P-gp (Homo sapiens, UniProt P08183); test: P-glycoprotein (P-gp) substrate assay in Caco-2 cells with and without verapamil; type: in vitro ADME; conditions: Caco-2, efflux ratio with/without verapamil
T2 construct: host or cells: Caco-2
T2 sequence (P08183 whole entry): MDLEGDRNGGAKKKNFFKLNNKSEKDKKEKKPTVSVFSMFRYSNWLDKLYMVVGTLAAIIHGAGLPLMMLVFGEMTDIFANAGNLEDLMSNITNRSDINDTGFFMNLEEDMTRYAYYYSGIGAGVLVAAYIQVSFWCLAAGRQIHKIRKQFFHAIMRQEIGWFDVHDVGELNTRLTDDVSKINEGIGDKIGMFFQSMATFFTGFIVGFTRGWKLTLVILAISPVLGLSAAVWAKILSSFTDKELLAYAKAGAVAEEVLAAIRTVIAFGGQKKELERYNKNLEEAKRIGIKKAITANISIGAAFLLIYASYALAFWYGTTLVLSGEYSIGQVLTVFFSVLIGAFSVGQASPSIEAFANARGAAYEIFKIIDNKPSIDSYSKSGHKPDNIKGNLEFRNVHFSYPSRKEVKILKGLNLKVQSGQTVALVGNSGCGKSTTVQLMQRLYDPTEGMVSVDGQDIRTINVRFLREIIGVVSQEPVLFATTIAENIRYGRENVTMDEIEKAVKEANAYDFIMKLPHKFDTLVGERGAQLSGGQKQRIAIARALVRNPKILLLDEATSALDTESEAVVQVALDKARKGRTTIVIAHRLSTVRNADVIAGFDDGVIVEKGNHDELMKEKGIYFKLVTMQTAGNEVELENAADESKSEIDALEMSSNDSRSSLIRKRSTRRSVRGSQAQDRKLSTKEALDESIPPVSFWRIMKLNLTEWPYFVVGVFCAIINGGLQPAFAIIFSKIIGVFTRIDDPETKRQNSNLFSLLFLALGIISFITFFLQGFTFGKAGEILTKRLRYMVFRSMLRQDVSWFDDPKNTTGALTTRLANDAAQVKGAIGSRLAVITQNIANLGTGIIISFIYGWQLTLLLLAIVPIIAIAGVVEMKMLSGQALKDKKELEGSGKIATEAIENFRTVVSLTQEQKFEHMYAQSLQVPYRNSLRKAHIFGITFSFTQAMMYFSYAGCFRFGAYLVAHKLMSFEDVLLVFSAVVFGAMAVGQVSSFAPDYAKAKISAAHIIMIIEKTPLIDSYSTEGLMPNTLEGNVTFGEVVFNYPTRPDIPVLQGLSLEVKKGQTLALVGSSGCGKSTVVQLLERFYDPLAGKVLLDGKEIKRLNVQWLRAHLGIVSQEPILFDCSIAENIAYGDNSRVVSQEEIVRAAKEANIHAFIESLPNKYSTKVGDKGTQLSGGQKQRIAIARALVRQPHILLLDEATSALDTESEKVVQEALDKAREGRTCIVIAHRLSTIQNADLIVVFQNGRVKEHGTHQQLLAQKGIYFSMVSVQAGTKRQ
Method: These experiments were performed by an outside vendor (Eurofins, France). C21 was tested in P-gp substrate assessment assays at 10 µM. The A to B and B to A permeability was measured in Caco-2 cells in the presence and absence of verapamil, a P-gp inhibitor. Efflux ratios (E) were calculated based on the apparent B–A and A–B permeability with and without verapamil. In each experiment, the respective reference compound was tested concurrently with the test compound to assess the assay reliability. Fluorescein was used as the cell monolayer integrity marker. Fluorescein permeability assessment (in the A–B direction at pH 7.4 on both sides) was performed after the permeability assay for the test compound.

hM4Di [5] = target: T1, hM4Di; test: [18F]JHU37107 PET in a monkey expressing hM4Di in the right amygdala; type: in vivo, rhesus monkey (Macaca mulatta); parameters: expressed in transfected cells; host or cells: rhesus monkey (Macaca mulatta) right amygdala, lentivirus-transduced neurons
Method: Lentivirus expressing an hM4Di-CFP fusion protein under an hSyn promoter[11] with a titer of >10^9 infectious particles was loaded into a 100 µL glass syringe (Hamilton Co., MA). The 31-gauge needle of the syringe was sheathed with a silica capillary (450 µm OD) to create a step 1 mm from the base of the aperture. The syringe was mounted in a Nanomite pump (Harvard Apparatus, Cambridge, MA). The needle was lowered through the incision in the dura mater to each of the pre-calculated target sites and 10 or 20 µL was infused at a rate of 1 µL min^−1. Each monkey received a total of between 10 and 12 injections (for a total injection volume of 120–240 µL). Post-infusion, the needle was left in situ for 10 min after each injection to allow pressure from the infusate to dissipate. The needle was then slowly removed. At the completion of the injection series the soft tissues were sutured together in anatomical layers.
(§1) [^18F]JHU37107 was prepared via the no-carrier-added ^18F-fluorination using an FDG Nuclear Interface module (Muenster, Germany). Briefly, 4 mg precursor (8-chloro-11-(4-ethylpiperazin-1-yl)-5H-dibenzo[b,e][1,4]diazepin-2-ol) and 8 mg tris(acetonitrile)cyclopentadienylruthenium(II)hexafluorophosphate (STREM, Boston, MA) were dissolved in ethanol (0.3 mL), the solution was heated at 85 °C for 25 min and evaporated to dryness under a stream of argon gas. The residue was dissolved in DMSO (0.5 mL) and acetonitrile (0.5 mL) and the solution was added to a dry complex of [^18F]fluoride and 9 mg 1,3-bis(2,6-di-i-propylphenyl)-2-chloroimidazolium chloride (STREM). The reaction mixture was heated at 130 °C for 30 min, diluted with mixture of 0.5 mL acetonitrile, 0.5 mL water and 0.03 mL TFA and injected onto a semi-preparative HPLC column (Luna C18, 10 micron, 10 mm × 250 mm) and eluted with 23:77 (v:v) acetonitrile:water (0.1% trifluoroacetic acid) at a flow rate of 10 mL min^−1. The radioactive peak corresponding to [^18F]JHU37107 (tR = 9.9 min) was collected in a reservoir containing 50 mL of water and 3 mL aq 8.4% NaHCO3 solution. The diluted product was loaded onto a solid phase extraction cartridge (Waters Oasis HLB plus light) and rinsed with 10 mL sterile saline. The product was eluted with 1000 µL of ethanol through a sterile 0.2 μm filter into a sterile, pyrogen-free vial and 10 mL saline was added through the same filter. The final product [^18F]JHU37107 was then analyzed by analytical HPLC (Luna C18, 10 micron, 4.6 mm × 250 mm; mobile phase 23:77 (v:v) acetonitrile:water (0.1% trifluoroacetic acid), flow rate of 3 mL min^−1; tR = 6.4 min) using a UV detector at 254 nm to determine the radiochemical purity (>95%) and specific radioactivity (152–188 GBq μmol^−1 (4100–5070 mCi μmol^−1)) at the time synthesis ended.
All macaque studies were acquired dynamically on the Focus 220 PET scanner (Siemens Medical Solutions, Knoxville, TN). The Focus 220 is a dedicated pre-clinical scanner with a transaxial FOV of 19 cm and an axial FOV of 7.5 cm. Image resolution is <2 mm within the central 5 cm FOV.
After initial evaluation the monkey was sedated with ketamine (10 mg kg^−1) followed by ketoprofen (as an analgesic) and glycopyrrolate (for salvia reduction), all weight dependent IM injections. The monkey would then be placed in the supine position, intubated with a tracheal tube. […] The monkey was always monitored while anesthetized. […]

hM4Di [6] = target: T1, hM4Di; test: [18F]JHU37107 PET in rats expressing hM3Dq or hM4Di in the right motor cortex; type: in vivo, rat; parameters: expressed in transfected cells; host or cells: rat right motor cortex, AAV-transduced neurons; conditions: unilateral hM4Di in right motor cortex
Method: as §1, with “The radioactive peak corresponding to [^18F]JHU37107 (tR = 9.9 min) was collected in a reservoir containing 50 mL of water and 3 mL aq 8.4% NaHCO3 solution. The diluted product was loaded onto a solid phase extraction cartridge (Waters Oasis HLB plus light) and rinsed with 10 mL sterile saline. The product was eluted with 1000 µL of ethanol through a sterile 0.2 μm filter into a sterile, pyrogen-free vial and 10 mL saline was added through the same filter.” left out, “ended. […]” for “ended.”

[7] = Radiometabolite analysis of [18F]JHU37107 in monkey plasma / whole blood (radio-HPLC); type: in vivo, rhesus monkey (Macaca mulatta)
Method: To determine the arterial input function for the radiotracers injected in rhesus monkeys radioligand concentrations in the arterial plasma were corrected by the unchanged parent fraction. […] Blood samples were immediately sampled for gamma counting, and plasma harvested by centrifugation for gamma counting and radio-HPLC analysis. The unchanged plasma parent fractions were determined by radio-HPLC on an X-terra® C18 column (10 µm, 7.8 mm × 300 mm, Waters Corp., Milford, MA), and eluted with MeOH:H2O:Et3N (80:20:0.1; by volume) at an isocratic flow rate of 4.0 mL min^−1. Eluates were monitored with an in-line flow-through NaI(Tl) scintillation detector (Bioscan). Data were stored and analyzed on a PC using the software “Bio-ChromeLite”. The collection of data for each radiochromatogram was decay corrected according to its respective HPLC injection time. Plasma free fraction was determined according to our previous methods.

binding to opioid receptors [1]	SMILES	brain metabolic activity ([18F]FDG) (WT mice)	brain metabolic activity ([18F]FDG) (WT mice; listed as CLZ)	tritiated ligand binding in brain tissue, CPu (hM4Di [2])	tritiated ligand binding in brain tissue, CTX (hM4Di [2])	tritiated ligand binding in brain tissue, hM4Di (hM4Di [2])	functional response in HEK-293 cells lacking DREADDs [3]	functional response, BRET (Go-alpha-Rluc8, beta1, gamma2-mVenus), no DREADD ([3]; HEK-293 cells)	functional response, GCaMP6f, no DREADD ([3]; HEK-293 cells)	hM4Di activation measured as [35S]GTPgammaS binding (hM4Di [4])	P-gp substrate (P-gp)	pharmacokinetic properties (hM4Di [5])	PET labelling of hM4Di (hM4Di [5]; hM4Di in right amygdala)	PET visualization of hM4Di (hM4Di [6])	parent radioactivity composition of plasma ([7]; in vitro monkey whole blood, 30 min incubation at room temperature) [%]	parent radioactivity composition of plasma ([7]; monkey plasma, 30 min after IV administration) [%]	parent radioactivity composition of plasma ([7]; monkey plasma, 180 min after IV administration) [%]
does not	CN1CCN(C2=Nc3cc(Cl)ccc3Nc3ccccc32)CC1 [clozapine]	did not produce any significant changes in brain glucose metabolism	did not show any significant changes in brain metabolic activity	109.018 and 115.173 and 108.688 and 86.4656 and 88.6824 and 91.973	88.2005 and 122.029 and 119.221 and 97.205 and 89.8389 and 100.22	176.387 and 144.183 and 141.333 and 201.955 and 168.154 and 164.257	Neither clozapine nor C21 produced detectable functional responses	did not show any functional response	did not show any functional response	induces significantly greater hM4Di activation	none of these compounds is a substrate for P-gp						
	CCN1CCN(C2=Nc3cc(Cl)ccc3Nc3ccc([18F])cc32)CC1 [[^18F]JHU37107]											favorable pharmacokinetic properties	able to directly label hM4Di receptors	permitted hM4Di visualization in both the AAV injection site as well as at known proximal and distal anatomical projection sites	49.7	56	24.2
